*1 amine or outer side, *2 acyl side, *3 side chain or, on linkers, in order; H or OH if unused. Where a SMILES comes first, the peptide text is derived from it. Bridges are numbered along the chain shown (N, C = ends). [ ]: non-standard residue; d: D form. The star is where a group is joined. ξ: configuration not given here. X5 = NC(=O)[C@H](CCCCNC(=O)CN1CCN(CC(=O)O)CCN(CC(=O)O)CCN(CC(=O)O)CC1)NC(=O)CCC(=O)NCCCOCCOCCOCCCN*; X3 = O=C(O)CN1CCN(CC(=O)O)CCN(CC(=O)NCCCOCCOCCOCCCN*)CCN(CC(=O)O)CC1; Trp(5-Cl) = N[C@@H](Cc1c[nH]c2ccc(Cl)cc12)C(=O)O; Trp(5-OH) = N[C@@H](Cc1c[nH]c2ccc(O)cc12)C(=O)O; Trp(7-aza) = N[C@@H](Cc1c[nH]c2ncccc12)C(=O)O; 1Nal = N[C@@H](Cc1cccc2ccccc12)C(=O)O; mXylylene = c1cc(C[*:1])cc(C[*:2])c1; oXylylene = c1ccc(C[*:2])c(C[*:1])c1; X7 = c1cc(CSCCN[*:2])cc(C[*:1])c1; Suc = O=C(CCC(=O)[*:2])[*:1]; Aib = CC(C)(N)C(=O)O; ξP = O=C(O)C1CCCN1

The assay concerns the target T1, GIPR (CHO-K1-hGIPR cells) (Homo sapiens, UniProt P48546).
T1 construct: host or cells: CHO-K1
T1 sequence (P48546 22-466): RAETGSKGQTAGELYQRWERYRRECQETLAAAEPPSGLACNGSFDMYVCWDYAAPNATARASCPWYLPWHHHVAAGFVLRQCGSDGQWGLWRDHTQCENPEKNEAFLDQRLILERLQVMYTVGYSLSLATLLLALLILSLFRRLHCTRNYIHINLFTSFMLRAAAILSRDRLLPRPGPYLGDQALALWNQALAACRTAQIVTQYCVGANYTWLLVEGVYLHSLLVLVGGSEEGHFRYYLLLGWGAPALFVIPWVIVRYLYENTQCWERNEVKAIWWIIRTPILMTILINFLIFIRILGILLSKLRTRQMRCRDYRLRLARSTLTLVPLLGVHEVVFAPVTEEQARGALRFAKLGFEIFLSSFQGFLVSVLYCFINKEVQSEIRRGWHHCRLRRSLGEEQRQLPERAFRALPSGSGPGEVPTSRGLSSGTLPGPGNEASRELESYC
The assay can be described thus: FACS binding assay. To be noted: competition with 20 nM GIP-057, 4° C. for 1 hour, read-out: pIC50 Category (converted). The method, boiled down:
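CHO-K1 cells expressing human GIPR, washed in PBS/1% FCS, then stained with 1 μg/mL APC-streptavidin for 30 min on ice.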
On the technique in general: In flow cytometry, cells or beads pass a laser one at a time.
`CC[C@H](C)[C@@H]1NC(=O)[C@H](CC(C)C)NC(=O)C(C)(C)NC(=O)[C@@H](NC(=O)[C@H](CC(C)C)NC(=O)[C@H](CCC(=O)O)NC(=O)[C@@H]2CCCN2C(=O)[C@H](Cc2cccc3ccccc23)NC(=O)[C@H](Cc2c[nH]c3ccccc23)NC(C)=O)CSCc2cccc(c2)CSC[C@@H](C(=O)NCCCOCCOCCOCCCNC(=O)CCC(=O)N[C@@H](CCCCNC(=O)CN2CCN(CC(=O)O)CCN(CC(=O)O)CCN(CC(=O)O)CC2)C(N)=O)NC1=O` [GIP-301, Ac-Trp-1Ni-Pro-Glu-Leu-[Cys(3MeBn)-Aib-Leu-Ile-Cys]-Ttds-Lys(DOTA)-NH2] (Ac-W[1Nal]PELC[Aib]LIC-X5; linker 6-10 via mXylylene): the IC50 is above 1 µM.

Regarding `CC[C@H](C)[C@@H]1NC(=O)[C@H](CC(C)C)NC(=O)C(C)(C)NC(=O)[C@@H](NC(=O)[C@@H](CC(C)C)NC(=O)[C@H](CCC(=O)O)NC(=O)[C@@H]2CCCN2C(=O)[C@H](Cc2c[nH]c3ccc(O)cc23)NC(=O)[C@H](Cc2c[nH]c3ccccc23)NC(=O)[C@H](CC(=O)O)NC(C)=O)CSCc2cccc(c2)CSC[C@@H](C(=O)NCCCOCCOCCOCCCNC(=O)CCC(=O)N[C@@H](CCCCNC(=O)CN2CCN(CC(=O)O)CCN(CC(=O)O)CCN(CC(=O)O)CC2)C(N)=O)NC1=O` [GIP-302, Ac-Asp-Trp-Hyw-Pro-Glu-leu-[Cys(3MeBn)-Aib-Leu-Ile-Cys]-Ttds-Lys(DOTA)-NH2] (Ac-DW[Trp(5-OH)]PE[dL]C[Aib]LIC-X5; linker 7-11 via mXylylene), the IC50 was above 1 µM.

On to `CC[C@H](C)[C@@H]1NC(=O)[C@H](CC(C)C)NC(=O)C(C)(C)NC(=O)[C@@H](NC(=O)[C@@H](CC(C)C)NC(=O)[C@H](CCC(=O)O)NC(=O)[C@@H]2CCCN2C(=O)[C@H](Cc2cccc3ccccc23)NC(=O)[C@H](Cc2c[nH]c3ncccc23)NC(=O)[C@H](CC(=O)O)NC(C)=O)CSCc2cccc(c2)CSC[C@@H](C(=O)NCCCOCCOCCOCCCNC(=O)CCC(=O)N[C@@H](CCCCNC(=O)CN2CCN(CC(=O)O)CCN(CC(=O)O)CCN(CC(=O)O)CC2)C(N)=O)NC1=O` [GIP-303, Ac-Asp-7Nw-1Ni-Pro-Glu-leu-[Cys(3MeBn)-Aib-Leu-Ile-Cys]-Ttds-Lys(DOTA)-NH2] (Ac-D[Trp(7-aza)][1Nal]PE[dL]C[Aib]LIC-X5; linker 7-11 via mXylylene), for which the IC50 is above 1 µM.

For `CC[C@H](C)[C@@H]1NC(=O)[C@H](CC(C)C)NC(=O)[C@@H](NC(=O)[C@H](CCC(=O)O)NC(=O)[C@@H](CC(C)C)NC(=O)[C@H](Cc2c[nH]c3ccc(Cl)cc23)NC(=O)[C@@H]2CCCN2C(=O)[C@H](CC(=O)O)NC(=O)[C@H](Cc2c[nH]c3ccccc23)NC(=O)CCC(=O)NCCCOCCOCCOCCCNC(=O)CN2CCN(CC(=O)O)CCN(CC(=O)O)CCN(CC(=O)O)CC2)CSCc2cccc(c2)CSCCNC(=O)C(C)(C)NC1=O` [GIP-304, DOTA-Ttds-Trp-Asp-Pro-5Clw-leu-Glu-[Cys(3MeBn)-Leu-Ile-Aib-AET]] ({X3-Suc}-WDP[Trp(5-Cl)][dL]ECLI[Aib]; linker 7-C via X7), the IC50 was above 1 µM.

Turning to `CC[C@H](C)[C@@H]1NC(=O)C(C)(C)NC(=O)[C@H](CCC(=O)O)NC(=O)[C@@H](NC(=O)[C@H](CC(C)C)NC(=O)[C@H](Cc2c[nH]c3ccccc23)NC(=O)[C@H](Cc2c[nH]c3ccc(Cl)cc23)NC(=O)[C@@H]2CCCN2C(=O)[C@H](CC(=O)O)NC(=O)[C@@H](CC(C)C)NC(=O)CCC(=O)NCCCOCCOCCOCCCNC(=O)CN2CCN(CC(=O)O)CCN(CC(=O)O)CCN(CC(=O)O)CC2)CSCc2cccc(c2)CSCCNC1=O` [GIP-305, DOTA-Ttds-leu-Asp-Pro-5Clw-Trp-Leu-[Cys(3MeBn)-Glu-Aib-Ile-AET]] ({X3-Suc}-[dL]DP[Trp(5-Cl)]WLCE[Aib]I; linker 7-C via X7), the IC50 is above 1 µM.

For the compound `CC[C@H](C)[C@@H]1NC(=O)[C@@H](NC(=O)[C@H](Cc2c[nH]c3ccccc23)NC(=O)[C@H](CC(=O)O)NC(=O)[C@@H](CC(C)C)NC(=O)[C@H](CCC(=O)O)NC(=O)C2CCCN2C(=O)[C@H](Cc2c[nH]c3ccc(Cl)cc23)NC(=O)CCC(=O)NCCCOCCOCCOCCCNC(=O)CN2CCN(CC(=O)O)CCN(CC(=O)O)CCN(CC(=O)O)CC2)CSCc2cccc(c2)CSCCNC(=O)C(C)(C)NC(=O)[C@H](CC(C)C)NC1=O` (stereo partly drawn) [GIP-306, DOTA-Ttds-5Clw-Pro-Glu-leu-Asp-Trp-[Cys(3MeBn)-Ile-Leu-Aib-AET]] ({X3-Suc}-[Trp(5-Cl)][ξP]E[dL]DWCIL[Aib]; linker 7-C via X7), the IC50 is above 1 µM.

Consider `CC[C@H](C)[C@@H]1NC(=O)[C@H](CC(C)C)NC(=O)[C@H](C)NC(=O)[C@@H](NC(=O)[C@H](CC(C)C)NC(=O)[C@H](CCC(=O)O)NC(=O)[C@@H]2CCCN2C(=O)[C@H](Cc2c[nH]c3ccccc23)NC(=O)[C@H](Cc2c[nH]c3ccccc23)NC(=O)[C@@H](CC(=O)O)NC(=O)[C@H](Cc2ccc(O)cc2)NC(=O)[C@@H](N)CCSC)CSCc2cccc(c2)CSC[C@@H](C(N)=O)NC1=O` [GIP-307, H-Met-Tyr-asp-Trp-Trp-Pro-Glu-Leu-[Cys(3MeBn)-Ala-Leu-Ile-Cys]-NH2] (H-MY[dD]WWPELCALIC-NH2; linker 9-13 via mXylylene), for which the IC50 was 0.1 to 0.794 µM.

In the case of `CC[C@H](C)[C@@H]1NC(=O)[C@H](CC(C)C)NC(=O)[C@H](C)NC(=O)[C@@H](NC(=O)[C@H](CC(C)C)NC(=O)[C@H](CCC(=O)O)NC(=O)[C@@H]2CCCN2C(=O)[C@H](Cc2c[nH]c3ccccc23)NC(=O)[C@@H](Cc2c[nH]c3ccccc23)NC(=O)[C@H](CC(=O)O)NC(=O)[C@H](Cc2ccc(O)cc2)NC(=O)[C@@H](N)CCSC)CSCc2cccc(c2)CSC[C@@H](C(N)=O)NC1=O` [GIP-308, H-Met-Tyr-Asp-trp-Trp-Pro-Glu-Leu-[Cys(3MeBn)-Ala-Leu-Ile-Cys]-NH2] (H-MYD[dW]WPELCALIC-NH2; linker 9-13 via mXylylene), the IC50 is 0.1 to 0.794 µM.

For `CC[C@H](C)[C@@H]1NC(=O)[C@H](CC(C)C)NC(=O)[C@H](C)NC(=O)[C@H](NC(=O)[C@H](CC(C)C)NC(=O)[C@H](CCC(=O)O)NC(=O)[C@@H]2CCCN2C(=O)[C@H](Cc2c[nH]c3ccccc23)NC(=O)[C@H](Cc2c[nH]c3ccccc23)NC(=O)[C@H](CC(=O)O)NC(=O)[C@H](Cc2ccc(O)cc2)NC(=O)[C@@H](N)CCSC)CSCc2cccc(c2)CSC[C@@H](C(N)=O)NC1=O` [GIP-309] (H-MYDWWPEL[dC]ALIC-NH2; linker 9-13 via mXylylene), the IC50 was 0.1 to 0.794 µM.

In the case of `CC[C@H](C)[C@@H]1NC(=O)[C@H](CC(C)C)NC(=O)[C@H](C)NC(=O)[C@@H](NC(=O)[C@H](CC(C)C)NC(=O)[C@H](CCC(=O)O)NC(=O)[C@@H]2CCCN2C(=O)[C@H](Cc2c[nH]c3ccccc23)NC(=O)[C@H](Cc2c[nH]c3ccccc23)NC(=O)[C@H](CC(=O)O)NC(=O)[C@H](Cc2ccc(O)cc2)NC(=O)[C@@H](N)CCSC)CSCc2cccc(c2)CSC[C@H](C(N)=O)NC1=O` [GIP-310] (H-MYDWWPELCALI[dC]-NH2; linker 9-13 via mXylylene), the IC50 is 0.1 to 0.794 µM.

Consider `CC[C@H](C)[C@@H]1NC(=O)[C@H](CC(C)C)NC(=O)[C@H](C)NC(=O)[C@@H](NC(=O)[C@H](CC(C)C)NC(=O)[C@H](CCC(=O)O)NC(=O)[C@H](C)NC(=O)[C@H](Cc2c[nH]c3ccccc23)NC(=O)[C@H](Cc2c[nH]c3ccccc23)NC(=O)[C@H](CC(=O)O)NC(=O)[C@H](Cc2ccc(O)cc2)NC(=O)[C@@H](N)CCSC)CSCc2cccc(c2)CSC[C@@H](C(N)=O)NC1=O` [GIP-311] (H-MYDWWAELCALIC-NH2; linker 9-13 via mXylylene), for which the IC50 was 0.1 to 0.794 µM.

`CC[C@H](C)[C@@H]1NC(=O)[C@H](C)NC(=O)[C@H](C)NC(=O)[C@@H](NC(=O)[C@H](CC(C)C)NC(=O)[C@H](CCC(=O)O)NC(=O)[C@@H]2CCCN2C(=O)[C@H](Cc2c[nH]c3ccccc23)NC(=O)[C@H](Cc2c[nH]c3ccccc23)NC(=O)[C@H](CC(=O)O)NC(=O)[C@H](Cc2ccc(O)cc2)NC(=O)[C@@H](N)CCSC)CSCc2cccc(c2)CSC[C@@H](C(N)=O)NC1=O` [GIP-312] (H-MYDWWPELCAAIC-NH2; linker 9-13 via mXylylene): the IC50 was 0.1 to 0.794 µM.

For the compound `CC[C@H](C)[C@@H]1NC(=O)[C@@H](CC(C)C)NC(=O)[C@H](C)NC(=O)[C@@H](NC(=O)[C@H](CC(C)C)NC(=O)[C@H](CCC(=O)O)NC(=O)[C@@H]2CCCN2C(=O)[C@H](Cc2c[nH]c3ccccc23)NC(=O)[C@H](Cc2c[nH]c3ccccc23)NC(=O)[C@H](CC(=O)O)NC(=O)[C@H](Cc2ccc(O)cc2)NC(=O)[C@@H](N)CCSC)CSCc2ccccc2CSC[C@@H](C(N)=O)NC1=O` [GIP-313] (H-MYDWWPELCA[dL]IC-NH2; linker 9-13 via oXylylene), the IC50 is 0.1 to 0.794 µM.

Regarding `CC[C@H](C)[C@@H]1NC(=O)[C@H](CC(C)C)NC(=O)[C@@H](C)NC(=O)[C@@H](NC(=O)[C@H](CC(C)C)NC(=O)[C@H](CCC(=O)O)NC(=O)[C@@H]2CCCN2C(=O)[C@H](Cc2c[nH]c3ccccc23)NC(=O)[C@H](Cc2c[nH]c3ccccc23)NC(=O)CCC(=O)O)CSCc2cccc(c2)CSC[C@@H](C(N)=O)NC1=O` [GIP-314, HO-Succinyl-Trp-Trp-Pro-Glu-Leu-[Cys(3MeBn)-ala-Leu-Ile-Cys]-NH2] (Suc-WWPELC[dA]LIC-NH2; linker 6-10 via mXylylene), the IC50 is 0.1 to 0.794 µM.

(Values after patent US20250296971A1, “GASTRIC INHIBITORY PEPTIDE RECEPTOR LIGANDS” (priority 2021, published 2025).)
